The results in this text go back to US20260201008A1, “SECRETIN-DERIVED GLP1R SELECTIVE AGONISTS” (GUBRA A/S, priority 2023, published 2026).

Each structure is given as a SMILES string. Like-named read-outs stand apart in the source and are kept apart here. Numbered stars: 1 amine (or outer) side, 2 acyl side, 3 side chain; on linkers, the order of the positions; unused ones are H or OH. Square brackets hold non-standard residues; d marks the D form. Side chains are listed from the residue outwards. Peptide text beside a SMILES is read from it. * marks the point of attachment. C20 diacid = O=C(O)CCCCCCCCCCCCCCCCCCC(=O)*; γGlu = O=C(O)[C@H](CCC(=O)[*:2])N[*:1]; AEEA = NCCOCCOCC(=O)O; Aib = CC(C)(N)C(=O)O

Data set [1] can be described thus: Turbidity of crude library peptides (absorbance at 600 nm). In kind it is physicochemical. The conditions noted are these: Physical stability of peptides. How it is done: (§1) Peptides were dissolved in buffers (50 mM sodium acetate at pH 4.0, or 50 mM sodium phosphate at pH 7.0) to 267 μM and incubated for 1-2 hours at room temperature. The samples were then divided into two replicates of 80 μl in a black 384 well plate (μ-clear, Greiner Bio-One) and mixed with Thioflavin T (ThT) to a final concentration of 4 μM. The plate was centrifuged for 2 min at 2000 rpm to remove air bubbles, sealed, and placed in a plate reader (CLARIOstar, BMG). Firstly, turbidity of the samples was measured as the absorbance at 600 nm. Secondly, the plate reader temperature was set to 40° C. and the fluorescence was measured every 10 min for 72 hours by exciting the ThT at 450 nm and measuring the emission at 480 nm. Samples were stressed by shaking the plate at 700 rpm (linear) for five minutes before every measurement, and fibril formation was determined as the average emission for each sample.

The nature of data set [2]: Fibril formation of crude library peptides (Thioflavin T). The arrangement: key: average ThT fluorescence emission at 480 nm (ex 450 nm), raw units. The conditions noted are these: Physical stability of peptides. In kind it is physicochemical. How it is done: as §1
In another data set the target is GLP1R (Homo sapiens, UniProt P43220). The experiment in a line: hGLP1R potency, cAMP accumulation in CHO-K1 cells stably overexpressing hGLP1R. The arrangement: host or cells: CHO-K1. Type of data set: cell-based. The following applies: for Selectivity: SCTR EC50/GLP1R EC50 ratio; for EC50: cAMP accumulation, CHO-K1 cells overexpressing hGLP1R; for SCTR EC50/GLP1R EC50 ratio: selectivity for hGLP1R over hSCTR, cAMP accumulation in CHO-K1 cells. An excerpt: (§2) Crude library peptides are screened in 10-fold serial dilutions of 5 concentrations, n=1 time. Tip change is done for the first two serial dilutions. Compound starting concentration (top) will be adjusted throughout the study if needed.
GLP1R, sequence (P43220 24-463): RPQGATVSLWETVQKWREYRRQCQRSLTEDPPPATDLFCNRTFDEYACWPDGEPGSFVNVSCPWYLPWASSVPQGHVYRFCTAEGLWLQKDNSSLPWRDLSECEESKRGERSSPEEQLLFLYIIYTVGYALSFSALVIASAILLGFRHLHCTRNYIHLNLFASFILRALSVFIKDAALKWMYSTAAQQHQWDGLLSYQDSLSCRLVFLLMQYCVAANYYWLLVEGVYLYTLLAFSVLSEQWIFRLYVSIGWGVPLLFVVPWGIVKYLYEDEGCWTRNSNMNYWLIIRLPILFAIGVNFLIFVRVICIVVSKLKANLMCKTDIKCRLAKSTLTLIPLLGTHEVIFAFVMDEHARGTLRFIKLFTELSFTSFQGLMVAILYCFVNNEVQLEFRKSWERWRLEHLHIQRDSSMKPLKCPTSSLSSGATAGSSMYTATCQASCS
(§3) Purified peptides are screened in 3-fold serial dilutions of 11 concentrations, n=2 times. Tip change is done for all serial dilutions. Compound starting concentration (top) will be adjusted throughout the study. If the top concentration is adjusted or a 5-fold difference in calculated EC50 values is observed, n is increased by 1. EC50 values were calculated by nonlinear regression using sigmoid concentration-response with variable slope.
(§4) A CHO-K1 cell line stably overexpressing the hGLP1R was obtained from Euroscreen (FAST-0145L), expanded, aliquoted and frozen. An aliquot was thawed and plated in DPBS with 0.05% casein and 0.5 mM IBMX as 2000 cells/well in a 384-well format. The cells were then immediately stimulated for 30 min at room temperature with graded doses of test compound using human GLP-1(7-36) (synthesized at Gubra) as a positive control. cAMP accumulation was measured using a Cisbio assay for Gs coupled receptors (cat. no. 62AM4PEC), where the assay reagents were added as per the manufacturer's instructions and time-resolved fluorescence energy transfer recorded after one hour on a CLARIOstar (BMG Labtech) plate reader.
(In general: cAMP levels reflect the balance of adenylyl cyclase and phosphodiesterase activity.)

A further data set deals with SCTR (Homo sapiens, UniProt P47872). The experiment in a line: hSCTR potency, cAMP accumulation in CHO-K1 cells stably overexpressing hSCTR. Type of data set: cell-based. The following applies: cAMP accumulation, CHO-K1 cells overexpressing hSCTR. The arrangement: alternatively Euroscreen ES-712-AF; FAST-0161L; host or cells: CHO-K1.
SCTR, sequence (P47872 23-440): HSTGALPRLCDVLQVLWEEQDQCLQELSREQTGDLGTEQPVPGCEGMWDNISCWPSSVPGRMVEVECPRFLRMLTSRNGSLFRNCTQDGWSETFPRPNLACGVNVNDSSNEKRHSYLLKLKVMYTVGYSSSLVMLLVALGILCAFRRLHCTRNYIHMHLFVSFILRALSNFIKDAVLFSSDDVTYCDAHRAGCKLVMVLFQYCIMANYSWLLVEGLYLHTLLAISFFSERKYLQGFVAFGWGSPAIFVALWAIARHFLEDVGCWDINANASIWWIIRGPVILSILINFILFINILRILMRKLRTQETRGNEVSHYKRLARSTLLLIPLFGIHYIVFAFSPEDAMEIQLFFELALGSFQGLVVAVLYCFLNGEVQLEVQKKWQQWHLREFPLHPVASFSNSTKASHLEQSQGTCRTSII
Text: as §2, §3
as §4, with “Frozen division arrested CHO-K1 cells stably overexpressing the hSCTR were obtained from PerkinElmer (ES-712-AF). Alternatively, a CHO-K1” for “A CHO-K1”, “the hSCTR” for “the hGLP1R”, “Euroscreen (FAST-0161L),” for “Euroscreen (FAST-0145L),”, “human secretin” for “human GLP-1(7-36)”

The mark [3] stands for this setting: read-out: pEC50 hGLPR1 (converted).
The mark [4] stands for this setting: read-out: pEC50 hSCTR (converted).

`CC(C)C[C@H](NC(=O)[C@H](Cc1ccccc1)NC(=O)[C@H](CCCNC(=N)N)NC(=O)[C@H](CCC(N)=O)NC(=O)[C@H](C)NC(=O)[C@H](C)NC(=O)[C@H](C)NC(=O)[C@H](CCC(=O)O)NC(=O)[C@H](CCC(=O)O)NC(=O)[C@H](CCCCNC(=O)COCCOCCNC(=O)COCCOCCNC(=O)CC[C@H](NC(=O)CCCCCCCCCCCCCCCCCCC(=O)O)C(=O)O)NC(=O)[C@H](CC(C)C)NC(=O)[C@@H](NC(=O)[C@H](CO)NC(=O)[C@@H](NC(=O)[C@H](CC(=O)O)NC(=O)[C@H](CO)NC(=O)[C@@H](NC(=O)[C@H](Cc1ccccc1)NC(=O)[C@@H](NC(=O)CNC(=O)[C@H](CCC(=O)O)NC(=O)C(C)(C)NC(=O)[C@@H](N)Cc1c[nH]cn1)[C@@H](C)O)[C@@H](C)O)C(C)C)C(C)C)C(=O)N[C@@H](CCC(=O)O)C(=O)N[C@@H](Cc1c[nH]cn1)C(=O)N[C@@H](CC(C)C)C(=O)N[C@H](C(N)=O)C(C)C` [compound 28] (H-H[Aib]EGTFTSDVSVLK([AEEA-AEEA-γGlu-C20 diacid])EEAAAQRFLEHLV-NH2): the “Turbidity (pH 7)” value in data set [1] is 0.09. For the same compound, the Fibril formation in data set [2] is listed as 7910. The Selectivity at GLP1R is 55501. For the same compound, the EC50 on GLP1R (setting [3]) was 0.02 nM; on SCTR (setting [4]), 1260 nM.

For `CC(C)C[C@H](NC(=O)[C@H](Cc1ccccc1)NC(=O)[C@H](CCCNC(=N)N)NC(=O)[C@H](CCC(N)=O)NC(=O)C(C)(C)NC(=O)[C@H](C)NC(=O)[C@H](C)NC(=O)[C@H](CCC(=O)O)NC(=O)[C@H](CCC(=O)O)NC(=O)[C@H](CCCCNC(=O)COCCOCCNC(=O)COCCOCCNC(=O)CC[C@H](NC(=O)CCCCCCCCCCCCCCCCCCC(=O)O)C(=O)O)NC(=O)[C@H](CC(C)C)NC(=O)[C@H](CCCNC(=N)N)NC(=O)[C@H](CO)NC(=O)[C@@H](NC(=O)[C@H](CC(=O)O)NC(=O)[C@H](CO)NC(=O)[C@@H](NC(=O)[C@H](Cc1ccccc1)NC(=O)[C@@H](NC(=O)CNC(=O)[C@H](CCC(=O)O)NC(=O)C(C)(C)NC(=O)[C@@H](N)Cc1c[nH]cn1)[C@@H](C)O)[C@@H](C)O)C(C)C)C(=O)N[C@@H](CCC(=O)O)C(=O)N[C@@H](Cc1c[nH]cn1)C(=O)N[C@@H](CC(C)C)C(=O)N[C@H](C(N)=O)C(C)C` [compound 1] (H-H[Aib]EGTFTSDVSRLK([AEEA-AEEA-γGlu-C20 diacid])EEAA[Aib]QRFLEHLV-NH2), the “Turbidity (pH 7)” value in data set [1] came to 0.08. The same compound returned a Fibril formation in data set [2] of 11494. At GLP1R, the Selectivity is reported as 4325. For the same compound, the EC50 is 0.0398 nM at GLP1R (setting [3]) and 158 nM at SCTR (setting [4]).

Turning to `CC(C)C[C@H](NC(=O)[C@H](Cc1ccc(O)cc1)NC(=O)[C@H](CCCNC(=N)N)NC(=O)[C@H](CCC(N)=O)NC(=O)[C@H](CC(C)C)NC(=O)C(C)(C)NC(=O)[C@H](C)NC(=O)[C@H](CCC(=O)O)NC(=O)[C@H](CCC(=O)O)NC(=O)[C@H](CCCCNC(=O)COCCOCCNC(=O)COCCOCCNC(=O)CC[C@H](NC(=O)CCCCCCCCCCCCCCCCCCC(=O)O)C(=O)O)NC(=O)[C@H](CC(C)C)NC(=O)[C@H](Cc1ccc(O)cc1)NC(=O)[C@H](CO)NC(=O)[C@@H](NC(=O)[C@H](CC(=O)O)NC(=O)[C@H](CO)NC(=O)[C@@H](NC(=O)[C@H](Cc1ccccc1)NC(=O)[C@@H](NC(=O)CNC(=O)[C@H](CCC(=O)O)NC(=O)C(C)(C)NC(=O)[C@@H](N)Cc1c[nH]cn1)[C@@H](C)O)[C@@H](C)O)C(C)C)C(=O)N[C@@H](CCC(=O)O)C(=O)N[C@@H](Cc1c[nH]cn1)C(=O)N[C@@H](CC(C)C)C(=O)N[C@H](C(N)=O)C(C)C` [compound 141] (H-H[Aib]EGTFTSDVSYLK([AEEA-AEEA-γGlu-C20 diacid])EEA[Aib]LQRYLEHLV-NH2), the “Turbidity (pH 7)” value in data set [1] came to 0.08. Also, in data set [2], the Fibril formation is given as 3233. Also, the EC50 on GLP1R (read-out: hGLP1R pEC50 (converted)) is 0.00398 nM; at SCTR (read-out: hSCTR pEC50 (converted)) it was 251 nM. In addition, the “SCTR EC50/GLP1R EC50 ratio” value at GLP1R is listed as 59910.

For the compound `CC(C)C[C@H](NC(=O)[C@H](CCC(=O)O)NC(=O)[C@H](CCCCNC(=O)COCCOCCNC(=O)COCCOCCNC(=O)CC[C@H](NC(=O)CCCCCCCCCCCCCCCCCCC(=O)O)C(=O)O)NC(=O)[C@H](CC(C)C)NC(=O)[C@@H](NC(=O)[C@H](CO)NC(=O)[C@@H](NC(=O)[C@H](CC(=O)O)NC(=O)[C@H](CO)NC(=O)[C@@H](NC(=O)[C@H](Cc1ccccc1)NC(=O)[C@@H](NC(=O)CNC(=O)[C@H](CCC(=O)O)NC(=O)C(C)(C)NC(=O)[C@@H](N)Cc1c[nH]cn1)[C@@H](C)O)[C@@H](C)O)C(C)C)[C@@H](C)O)C(=O)N[C@@H](C)C(=O)N[C@@H](C)C(=O)N[C@H](C(=O)N[C@@H](CCC(N)=O)C(=O)N[C@@H](CCCNC(=N)N)C(=O)N[C@@H](Cc1ccccc1)C(=O)N[C@@H](CC(C)C)C(=O)N[C@@H](CCC(=O)O)C(=O)N[C@@H](Cc1c[nH]cn1)C(=O)N[C@@H](CC(C)C)C(=O)N[C@H](C(N)=O)C(C)C)[C@@H](C)O` [compound 67] (H-H[Aib]EGTFTSDVSTLK([AEEA-AEEA-γGlu-C20 diacid])ELAATQRFLEHLV-NH2), in data set [1], the “Turbidity (pH 7)” value is 0.08. Also, the Fibril formation in data set [2] is given as 5041. Also, the Selectivity on GLP1R is recorded as 7155. Further, the results for the EC50 at GLP1R (setting [3]) and at SCTR (setting [4]) were 0.0501 nM and 398 nM, respectively.

For the compound `CC(C)C[C@H](NC(=O)[C@H](Cc1ccccc1)NC(=O)[C@H](CCCNC(=N)N)NC(=O)[C@H](CCC(N)=O)NC(=O)C(C)(C)NC(=O)[C@H](C)NC(=O)[C@H](C)NC(=O)[C@H](CCC(=O)O)NC(=O)[C@H](CCC(=O)O)NC(=O)[C@H](CCCCNC(=O)COCCOCCNC(=O)COCCOCCNC(=O)CC[C@H](NC(=O)CCCCCCCCCCCCCCCCCCC(=O)O)C(=O)O)NC(=O)[C@H](CC(C)C)NC(=O)[C@@H](NC(=O)[C@H](CO)NC(=O)[C@@H](NC(=O)[C@H](CC(=O)O)NC(=O)[C@H](CO)NC(=O)[C@@H](NC(=O)[C@H](Cc1ccccc1)NC(=O)[C@@H](NC(=O)CNC(=O)[C@H](CCC(=O)O)NC(=O)C(C)(C)NC(=O)[C@@H](N)Cc1c[nH]cn1)[C@@H](C)O)[C@@H](C)O)C(C)C)C(C)C)C(=O)N[C@@H](CCC(=O)O)C(=O)N[C@@H](Cc1c[nH]cn1)C(=O)N[C@@H](CC(C)C)C(=O)N[C@H](C(N)=O)C(C)C` [compound 35] (H-H[Aib]EGTFTSDVSVLK([AEEA-AEEA-γGlu-C20 diacid])EEAA[Aib]QRFLEHLV-NH2), the “Turbidity (pH 7)” value in data set [1] turned out to be 0.08. For the same compound, in data set [2], the Fibril formation is 8261. The Selectivity on GLP1R stood at 43142. In addition, the EC50 on GLP1R (setting [3]) is 0.0158 nM; at SCTR (setting [4]) it was 794 nM.

As to `CC(C)C[C@H](NC(=O)[C@H](Cc1ccccc1)NC(=O)[C@H](CCCNC(=N)N)NC(=O)[C@H](CCC(N)=O)NC(=O)[C@H](CC(C)C)NC(=O)C(C)(C)NC(=O)[C@H](C)NC(=O)[C@H](CCC(=O)O)NC(=O)[C@H](CCC(=O)O)NC(=O)[C@H](CCCCNC(=O)COCCOCCNC(=O)COCCOCCNC(=O)CC[C@H](NC(=O)CCCCCCCCCCCCCCCCCCC(=O)O)C(=O)O)NC(=O)[C@H](CC(C)C)NC(=O)[C@H](Cc1ccc(O)cc1)NC(=O)[C@H](CO)NC(=O)[C@@H](NC(=O)[C@H](CC(=O)O)NC(=O)[C@H](CO)NC(=O)[C@@H](NC(=O)[C@H](Cc1ccccc1)NC(=O)[C@@H](NC(=O)CNC(=O)[C@H](CCC(N)=O)NC(=O)C(C)(C)NC(=O)[C@@H](N)Cc1c[nH]cn1)[C@@H](C)O)[C@@H](C)O)C(C)C)C(=O)N[C@@H](CCC(=O)O)C(=O)N[C@@H](Cc1c[nH]cn1)C(=O)N[C@@H](CC(C)C)C(=O)N[C@H](C(N)=O)C(C)C` [compound 156] (H-H[Aib]QGTFTSDVSYLK([AEEA-AEEA-γGlu-C20 diacid])EEA[Aib]LQRFLEHLV-NH2), the “Turbidity (pH 7)” value in data set [1] amounted to 0.08. In data set [2], the Fibril formation worked out at 3949. Besides, the “SCTR EC50/GLP1R EC50 ratio” value on GLP1R was 2941711.
